The results in this text go back to patent US11981701B2, “PRMT5 inhibitors” (Merck Sharp & Dohme LLC, priority 2018, dated 2024).

Counter-ions that a name gives are not always drawn. Like-named read-outs stand apart in the source and are kept apart here.

Test [1] addresses T1, Full-length (FL)-PRMT5-MEP50 enzyme complex (Homo sapiens, UniProt O14744).
T1 construct: 1.25 nM of Full-length (FL)-PRMT5-MEP50 enzyme complex; made in house; host or cells: baculovirus-transfected Sf21 cells
Put plainly: PRMT5-MEP50 Enzyme Methylation Assay. The following applies: 1.0 nM PRMT5-MEP50, 75 nM biotinylated H4R3(Me1) peptide, 15 μM SAM, 60 min pre-incubation, 150 min at 37° C. Type of test: biochemical. Here is the method:
PRMT5/MEP50 biochemical assay is a direct measurement of the methylation activity of the enzyme complex on a short peptide substrate derived from the N-terminus of H4 histone. Methylation experiment is performed with recombinant protein. The assessment of inhibitory effect (IC50) of small molecules is measured by the effectiveness of the compounds to inhibit this reaction.
In this assay, the potency (IC50) of each compound was determined from a twenty-point (1:2 serial dilution; top compound concentration of 100000 nM) titration curve using the following outlined procedure. To each well of a white ProxiPlus 384 well-plate, 100 nL of compound (1% DMSO in final assay volume of 10 μL) was dispensed, followed by the addition of 8 μL of 1× assay buffer (50 mM Bicine pH 8.0, 1 mM DTT, 0.004% Tween20, 0.01% BSA) containing 1.25 nM of Full-length (FL)-PRMT5-MEP50 enzyme complex (recombinant proteins from baculovirus-transfected Sf21 cells: FL-PRMT5; MW=[…] and FL-MEP50; MW=38614) and 1 μL of 150 μM S-(5′-Adenosyl)-L-Methionine Chloride (SAM). Plates were sealed and placed in a 37° C. humidified chamber for a 60 min pre-incubation with compound. Subsequently, each reaction was initiated by the addition of 1 μL 1× assay buffer containing 750 nM biotinylated H4R3(Me1) peptide. The final reaction in each well of 10 μL consists of 1.0 nM PRMT5-MEP50, 75 nM biotinylated-peptide, and 15 μM SAM. Methylation reactions were allowed to proceed for 150 min in a sealed plate at 37° C. Reactions were immediately quenched by the addition of 1 μL of 5% formic acid. Plates were then frozen and shipped to SAMDI™ Tech Inc. to determine the percent conversion from H4R3(Me1) to H4R3(Me2). IC50 values were determined by a 7 parameter biphasic fit model plotting the percent Effect (based on product conversion) vs. (Log10) compound concentrations.

Test [2] deals with T2, PRMT5 (Homo sapiens, UniProt O14744).
T2 construct: seeded with 4000 MCF-7 cells; endogenous in cells; host or cells: MCF-7 cells
The experiment in a line: PRMT5 Cell Target Engagement (TE) Assay. It counts as cell-based. The following applies: MCF-7 cells, treated for 3 days, symmetrically dimethylated (SDMA) nuclear proteins by high content imaging; top concentration 10000 nM. The text has this:
The PRMT5 TE assay is a biomarker assay for identifying compounds that inhibit symmetric dimethylation of arginine (SDMA) of PRMT5 substrates. The following substrates have been reported for PRMT5: histone H2A and H4 R3, Histone H3 R2, Histone H3 R8, spliceosome Sm proteins, ribosomal protein RPS10, p53, FEN1, nucleoplasmin, nucleolin, EGFR and EBNA. The assay will focus on detecting symmetrically dimethylated nuclear proteins using high content imaging technology. Detection of the expression of symmetrically dimethylated nuclear proteins is through a mixture of primary rabbit monoclonal antibodies to SDMA (CST 13222), which in turn recognized by an Alexafluor 488 dye-conjugated anti-rabbit IgG secondary antibody. The IN Cell Analyzer 2200 or Opera-Phenix measures nuclear Alexafluor 488 fluorescent dye intensity that is directly related to the level of expression of symmetrically dimethylated nuclear proteins at the single cell level. Nuclear AF488 dye intensities are compared to the mean value for DMSO treated cells (MIN) to report percent of inhibition for each compound-treated well. In this assay, the cell potency (EC50) of each compound was determined from a ten point (1:3 serial dilution; top compound concentration of 10000 nM) titration curve using the following outlined procedure. Each well of a BD falcon collagen coated black/clear bottom 384-well plate was seeded with 4000 MCF-7 cells in 30 μl media and allowed to attach for 5 h. Media is ATCC-formulated Eagle's Minimum Essential Medium, Catalog No. 30-2003. To make the complete growth medium, add the following components to the base medium: 0.01 mg/ml human recombinant insulin; fetal bovine serum to a final concentration of 10%. Additional 30 μl of media containing 2× compounds were added to each well. Cells were treated for 3 days in 37° C. CO2 incubator. On day 3, cells were fixed with Cytofix, permeabilized with 0.4% Triton-X-100/Cytofix, and washed with D-PBS without Ca/Mg. Cells were blocked with Licor Odessey blocking reagent for 1 h at room temperature, followed by incubation with anti-SDMA (1:1000) antibody at 4° C. overnight. 1° antibody was removed, followed by three washings with DPBS without Ca/Mg and 0.05% Tween20. Hoechst (5 μg/ml), Cell Mask deep stain (1:2000) and Alexa488-conjugated goat anti-rabbit IgG (2 μg/mL) was added for 1 hour at room temperature. A final washing step (three washes) was performed before sealing plate for imaging on In Cell Analyzer 2200 or Opera-Phenix. Images from analyzer were uploaded to Columbus (at WP or BOS) for image analysis. IC50 values were determined by 4 parameters robust fit of percent fluorescence units vs. (Log10) compound concentrations.

Where [3] appears, read: first value of 7 parameter biphasic fit, read-out: Enzyme Methylation Assay EC50_1.
The mark [4] stands for this setting: second value of 7 parameter biphasic fit, read-out: Enzyme Methylation Assay EC50_2.

T1 sequence (O14744 whole entry): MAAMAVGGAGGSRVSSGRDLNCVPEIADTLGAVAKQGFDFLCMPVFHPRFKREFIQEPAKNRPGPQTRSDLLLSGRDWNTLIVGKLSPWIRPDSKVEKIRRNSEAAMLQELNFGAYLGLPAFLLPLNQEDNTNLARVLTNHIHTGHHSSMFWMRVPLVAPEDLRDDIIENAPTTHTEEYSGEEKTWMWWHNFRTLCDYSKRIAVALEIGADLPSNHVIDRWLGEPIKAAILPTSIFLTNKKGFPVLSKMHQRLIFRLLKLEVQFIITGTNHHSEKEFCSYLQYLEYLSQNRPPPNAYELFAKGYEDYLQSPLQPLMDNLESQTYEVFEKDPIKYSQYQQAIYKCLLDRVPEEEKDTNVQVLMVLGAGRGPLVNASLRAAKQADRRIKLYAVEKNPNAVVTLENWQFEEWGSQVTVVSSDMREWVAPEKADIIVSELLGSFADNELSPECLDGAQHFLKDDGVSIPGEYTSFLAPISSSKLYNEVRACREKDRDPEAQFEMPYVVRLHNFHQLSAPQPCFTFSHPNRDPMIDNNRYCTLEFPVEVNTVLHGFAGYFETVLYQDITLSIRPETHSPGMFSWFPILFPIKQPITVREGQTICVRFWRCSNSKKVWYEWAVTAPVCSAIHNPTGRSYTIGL
T1 sequence (Q9BQA1 whole entry partner): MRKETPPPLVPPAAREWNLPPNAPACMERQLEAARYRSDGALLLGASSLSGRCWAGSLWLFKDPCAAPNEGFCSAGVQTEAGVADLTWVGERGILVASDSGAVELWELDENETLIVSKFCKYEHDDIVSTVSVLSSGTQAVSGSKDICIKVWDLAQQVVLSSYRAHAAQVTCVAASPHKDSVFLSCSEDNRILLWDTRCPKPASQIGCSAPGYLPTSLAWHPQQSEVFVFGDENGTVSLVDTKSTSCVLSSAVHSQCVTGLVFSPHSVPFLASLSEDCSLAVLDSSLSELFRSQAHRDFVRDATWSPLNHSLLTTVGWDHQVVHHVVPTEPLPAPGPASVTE
T2 sequence (O14744 whole entry): as the sequence (O14744 whole entry) above
T2 sequence (Q9BQA1 whole entry partner): as the sequence (Q9BQA1 whole entry partner) above

Regarding `CCc1cc2ncnc-2n([C@@H]2C[C@H](CCc3ccc4cc(Br)c(N)nc4c3)[C@@H](O)[C@H]2O)c1` [Example 11, (1S,2R,3S,5R)-3-[2-(2-amino-3-bromo-7-quinolinyl)ethyl]-5-(6-ethyl-4H-imidazo[4,5-b]pyridin-4-yl)-1,2-cyclopentanediol trifluoroacetate], the EC50 stood at 0.96 nM in test [1] (setting [3]) and 30.2 nM in test [2].

Consider `Cc1ccn([C@@H]2C[C@H](CCc3ccc4cc(Br)c(N)nc4c3)[C@@H](O)[C@H]2O)c2ncnc1-2` [Example 5, (1S,2R,3S,5R)-3-[2-(2-amino-3-bromo-7-quinolinyl)ethyl]-5-(7-methyl-4H-imidazo[4,5-b]pyridin-4-yl)-1,2-cyclopentanediol], for which the EC50 worked out at 0.32 nM in test [1] (setting [3]) and 0.508 nM in test [2].

Regarding `Nc1nc2cc(CC[C@H]3C[C@@H](n4cnc(N)c5ncnc4-5)[C@H](O)[C@@H]3O)ccc2cc1Br` [Example 6, (1S,2R,3S,5R)-3-[2-(2-amino-3-bromo-7-quinolinyl)ethyl]-5-(6-amino-3H-purin-3-yl)-1,2-cyclopentanediol hydrochloride], the EC50 came to 0.264 nM in test [1] (setting [3]) and 1.69 nM in test [2].

Regarding `Cc1ccn([C@@H]2C[C@H](CCc3ccc4ccc(NCC(F)F)nc4c3)[C@@H](O)[C@H]2O)c2ncnc1-2` [Example 8, (1S,2R,3S,5R)-3-(2-{2-[(2,2-difluoroethyl)amino]-7-quinolinyl}ethyl)-5-(7-methyl-4H-imidazo[4,5-b]pyridin-4-yl)-1,2-cyclopentanediol], the values for the EC50 in test [1] (setting [3]) and in test [2] were 0.253 nM and 1.94 nM, respectively.

Regarding `Cc1cc2ncnc-2n([C@@H]2C[C@H](CCc3ccc4cc(Br)c(N)nc4c3)[C@@H](O)[C@H]2O)c1` [Example 10, (1S,2R,3S,5R)-3-[2-(2-amino-3-bromo-7-quinolinyl)ethyl]-5-(6-methyl-4H-imidazo[4,5-b]pyridin-4-yl)-1,2-cyclopentanediol trifluoroacetate], the EC50 in test [1] (setting [3]) was 1.62 nM; in test [2], 116 nM.

In the case of `Nc1ccn([C@@H]2C[C@H](CCc3ccc4ccc(NCC(F)F)nc4c3)[C@@H](O)[C@H]2O)c2ncnc1-2` [Example 7, (1R,2S,3R,5S)-3-(7-amino-4H-imidazo[4,5-b]pyridin-4-yl)-5-(2-{2-[(2,2-difluoroethyl)amino]-7-quinolinyl}ethyl)-1,2-cyclopentanediol], the EC50 in test [1] (setting [3]) worked out at 0.231 nM; in test [2] it was 16.1 nM.

With `Nc1nc2cc(OC[C@H]3O[C@@H](n4cnc(N)c5ncnc4-5)[C@H](O)[C@@H]3O)ccc2cc1Br` [Example 1, 3-[5-O-(2-amino-3-bromo-7-quinolinyl)-b-D-ribofuranosyl]-3H-purin-6-amine], the EC50 amounted to 1.37 nM in test [1] (setting [3]), 85.1 nM in test [1] (setting [4]) and 60.6 nM in test [2].

As for `Nc1nc2cc(OC[C@H]3O[C@@H](n4nc5ncnc-5c(N)n4)[C@H](O)[C@@H]3O)ccc2cc1Br` [Example 3, 2-[5-O-(2-amino-3-bromo-7-quinolinyl)-b-D-ribofuranosyl]-2H-imidazo[4,5-d][1,2,3]triazin-4-amine trifluoroacetate], the results for the EC50 in test [1] (setting [3]) and in test [2] were 1620 nM and above 10000 nM, respectively.

With `Cc1ncn([C@@H]2C[C@H](CCc3ccc4cc(Br)c(N)nc4c3)[C@@H](O)[C@H]2O)c2ncnc1-2` [Example 9, (1S,2R,3S,5R)-3-[2-(2-amino-3-bromo-7-quinolinyl)ethyl]-5-(6-methyl-3H-purin-3-yl)-1,2-cyclopentanediol], the EC50 stood at 0.282 nM in test [1] (setting [3]) and 1.05 nM in test [2].

Take `Nc1ccn([C@@H]2C[C@H](CCc3ccc4cc(Br)c(N)nc4c3)[C@@H](O)[C@H]2O)c2ncnc1-2` [Example 4, (1S,2R,3S,5R)-3-[2-(2-amino-3-bromo-7-quinolinyl)ethyl]-5-(7-amino-4H-imidazo[4,5-b]pyridin-4-yl)-1,2-cyclopentanediol]: the EC50 in test [1] (setting [3]) came to 0.489 nM; in test [2] it was 2.54 nM.

In the case of `Cc1ccn([C@@H]2O[C@H](CCc3ccc4cc(Br)c(N)nc4c3)[C@@H](O)[C@H]2O)c2ncnc1-2` [Example 12, (2R,3S,4R,5R)-2-(2-(2-amino-3-bromoquinolin-7-yl)ethyl)-5-(7-methyl-4H-imidazo [4,5-b]pyridin-4-yl)tetrahydrofuran-3,4-diol], the EC50 in test [1] (setting [3]) worked out at 0.58 nM; in test [2], 1.7 nM.

As to `Nc1ccn([C@@H]2O[C@H](COc3ccc4cc(Br)c(N)nc4c3)[C@@H](O)[C@H]2O)c2ncnc1-2` [Example 2, 4-[5-O-(2-amino-3-bromo-7-quinolinyl)-b-D-ribofuranosyl]-4H-imidazo[4,5-b]pyridin-7-amine], the EC50 in test [1] (setting [3]) is 0.662 nM; in test [1] (setting [4]), 18.3 nM; in test [2] it was 19.2 nM.

As for `Cc1ccn([C@@H]2C[C@H](COc3ccc4cc(Br)c(N)nc4c3)[C@@H](O)[C@H]2O)c2ncnc1-2` [Example 13, (1S,2R,3R,5R)-3-(((2-amino-3-bromoquinolin-7-yl)oxy)methyl)-5-(7-methyl-4H-imidazo[4,5-b]pyridin-4-yl)cyclopentane-1,2-diol], the values for the EC50 in test [1] (setting [3]) and in test [2] were 0.404 nM and 61.5 nM, respectively.
